Assay results: publication PMC4528135, “Kinetic Investigations of the Role of Factor Inhibiting Hypoxia-inducible Factor (FIH) as an Oxygen Sensor” (The Journal of Biological Chemistry, 2015)
Read-outs that look alike come from different tables or passages of the source.

How the values were obtained:
Assay type in all cases: biochemical
FIH [1] = target: T1, FIH (Homo sapiens, UniProt Q9NWT6); assay: Steady-state kinetics of FIH-catalyzed peptide/protein hydroxylation (MALDI-TOF-MS or LC-MS); settings: 50 μM Fe(II), 1 mM L-ascorbate, 50 mM HEPES pH 7.5, 37 °C; for Km: 0.1–5 μM FIH, MALDI-TOF-MS (LC-MS for 2CA, 3CA), triplicate assays
T1 construct: Full-length recombinant FIH, two- and three-consensus ankyrin repeats (2CA and 3CA) were produced as described; His6 (cleaved yes); made in house; host or cells: Escherichia coli BL21(DE3)
T1 sequence (Q9NWT6 whole entry): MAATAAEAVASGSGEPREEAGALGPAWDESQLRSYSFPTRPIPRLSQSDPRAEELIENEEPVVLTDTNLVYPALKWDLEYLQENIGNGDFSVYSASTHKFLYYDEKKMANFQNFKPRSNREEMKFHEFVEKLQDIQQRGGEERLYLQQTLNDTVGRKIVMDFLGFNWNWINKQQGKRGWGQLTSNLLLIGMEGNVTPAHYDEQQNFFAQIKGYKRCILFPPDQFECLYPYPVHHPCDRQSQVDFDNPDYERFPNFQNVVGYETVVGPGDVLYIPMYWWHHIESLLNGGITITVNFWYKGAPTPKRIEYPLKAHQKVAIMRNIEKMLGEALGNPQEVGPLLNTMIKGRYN
Protocol: Enzymatic assays were conducted as described ([46], [47]). Unless otherwise stated, the assay mixture typically contained 5 μM FIH, 500 μM substrate, 500 μM 2OG, 1 mM L-ascorbate, and 50 μM Fe(NH4)2(SO4)2 or 4 μM PHD2, 100 μM substrate, 300 μM 2OG, 4 mM L-ascorbate, and 50 μM Fe(NH4)2(SO4)2. For HIF-1α CODD19-mer, the background levels of methionine oxidation resulting from assay conditions were subtracted based on non-enzymatic controls ([48]).
(§1) The O2 dependence of FIH-catalyzed reactions was determined by conducting enzymatic assays in an “In vivo 500 Hypoxia Workstation” (Ruskinn) using buffers pre-equilibrated under different pO2 values for 24 h. The O2 dependence of PHD2-catalyzed reactions was determined by conducting enzymatic assays in sealed glass vials with variable N2/O2 contents ([42]). Reactions were stopped by spotting samples onto a matrix-assisted laser desorption/ionization-time of flight mass spectrometry (MALDI-TOF-MS) target plate and immediately mixing with α-cyano-4-hydroxycinnamic acid matrix. Hydroxylation levels were assessed by MALDI-TOF-MS as described ([46]).
Samples obtained from FIH kinetic assays with 2CA and 3CA were diluted to a substrate concentration of 5 μM and then analyzed using a Waters® LCT Classic mass spectrometer by electrospray ionization in positive ion mode. An Agilent HP1100 LC system was used, and samples were run through a Phenomenex® Aeris Widepore 3.6-μm XB-C8 150 × 2.1-mm column at 0.5 ml/min in a gradient of phase A (95% H2O, 5% CH3CN, 0.01% formic acid) to phase B (95% CH3CN, 5% H2O, 0.01% formic acid). The LC/MS used the following method: 0–1.5 min, 100% A and then 1.5–12 min linear gradient from 0 to 100% B, 12–14 min 100% B, and 15.0–19.0 min 100% A for re-equilibration of the column. Data were collected and analyzed using MassLynx version 4.0.

FIH [2] = target: T1, FIH; assay: Stopped-flow UV-visible spectroscopy, FIH·Fe(II)·2OG·substrate + O2; settings: anaerobic 0.5 mM FIH, 1 mM substrate, 5 mM 2OG, 0.4 mM Fe(II), 50 mM HEPES pH 7.5, mixed 1:1 with O2-saturated buffer at 5 °C; double exponential fit
Protocol: (§2) Stopped-flow UV-visible spectroscopy experiments were performed as described previously ([32], [42]). Anerobically prepared assay mixtures containing 0.5 mM apo-FIH, 1 mM substrate, 5 mM 2OG, 0.4 mM Fe(II) or 0.8 mM apo-PHD2, 1 mM substrate, 5 mM 2OG, 0.5 mM Fe(II) were rapidly mixed with O2-free/O2-saturated buffer. The reaction was observed over 1000 s using a photodiode array detector, and kinetic traces were analyzed using Origin version 8.51 software. Data were fitted with a double exponential function (y = A1 × exp(−kriset) + A2 × exp(−kfallt) + y0). The A1, A2, and y0 parameters were restricted with upper limits to match the observed amplitude/offset changes.
Kinetic traces were fitted using a double exponential function; the fitting parameters of intermediate formation and decay are summarized in Table 3.
FIGURE 10. Stopped-flow UV-visible absorbance changes upon FIH-catalyzed hydroxylation of HIF-1/2α CAD and ARD substrates. Reaction mixtures containing anaerobic 0.5 mM apo-FIH, 0.4 mM Fe(II), 5 mM 2OG, and 1 mM peptide in HEPES 50 mM (pH 7.5) were rapidly mixed with O2-saturated buffer at 5 °C in 1:1 ratio and analyzed using a photodiode array detector. The data were fitted with a double exponential function. A, decay at 500 nm (representing enzyme·substrate complex depletion) observed upon FIH-catalyzed hydroxylation of ARD substrates compared with HIF-1/2α CAD. B, formation and degradation of 310 nm species observed upon FIH-catalyzed HIF-1/2α CAD and ARD hydroxylation. C, decay at 500 nm observed upon FIH-catalyzed hydroxylation of 1CA, 2CA, and 3CA substrates.

FIH [3] = target: T1, FIH; assay: Rapid quench-flow, FIH pre-steady-state product and succinate formation; settings: for Rapid quench-flow kproduct / Rapid quench-flow ksuccinate: 0.5 mM apo-FIH, 0.4 mM Fe(II), 5 mM 2OG, 1 mM substrate, 50 mM HEPES pH 7.5, O2-saturated buffer 1:1, 5 °C, quenched with 1% CF3CO2H; for Rapid quench-flow kproduct: hydroxylation by MALDI-TOF-MS, 1–3 separate experiments; for Rapid quench-flow ksuccinate: succinate by LC-MS
Protocol: Rapid quench-flow experiments were performed using the same conditions and preparation of the assay mixture as used in stopped-flow experiments. Rapid quench-flow equipment (TgK Scientific Ltd.) in an anaerobic glove box was used for the experiments. Samples were quenched with 1% CF3CO2H and analyzed using MALDI-TOF-MS (peptide hydroxylation) as described above or liquid chromatography-mass spectrometry (LC-MS, for succinate production). For LC-MS, chromatographic separation was performed at 50 °C using a Waters ACQUITY BEH Amide 1.7-μm, 2.1 × 100-mm column on a Waters ACQUITY^TM ultraperformance liquid chromatography system (Waters Corp., Milford, MA). The following eluents were used: mobile phase A: 10% H2O, 90% acetonitrile (v/v), 10 mM ammonium formate; mobile phase B: 50% H2O, 50% acetonitrile (v/v), 10 mM ammonium formate. The elution gradient was 0–7.0 min linear from 10 to 30% B, and 7.0–9.0 min at 10% B for re-equilibration of the column. A constant flow rate of 0.4 ml/min was used. Analytes were detected in negative ionization mode using single reaction monitoring on a Quattro triple quadrupole mass spectrometer (Waters) with a cone voltage of 15 V and a capillary voltage of 3.0 kV. The desolvation temperature was set to 250 °C, and the source temperature was set to 120 °C.
FIGURE 9. Rapid quench-flow experiments showing FIH-catalyzed hydroxylation of HIF-1/2α CAD and ARD substrates. Reaction mixtures containing anaerobic 0.5 mM apo-FIH, 0.4 mM Fe(II), 5 mM 2OG, 1 mM peptide in HEPES 50 mM (pH 7.5) were rapidly mixed with O2-saturated buffer at 5 °C in a 1:1 ratio and then quenched with 1% CF3CO2H at defined time points. The data were fitted with the function, y = a·(1 − exp(−bx)) + c. Hydroxylation levels were assessed by MALDI-TOF-MS. A, hydroxylation of HIF-1α CAD, 1CA, and tankyrase-1 peptide substrates (19- and 20-mers); B, hydroxylation of HIF-1α, HIF-2α, and tankyrase-1 35-mer peptide substrates; C, hydroxylation of 1CA, 2CA, and 3CA. Data plotted were cumulatively acquired over the course of 1–3 separate experiments.

FIH [4] = target: T1, FIH; assay: O2 dependence of FIH-catalyzed hydroxylation (hypoxia workstation); settings: FIH with the named substrate; 5 μM FIH, 500 μM peptide, 50 μM Fe(II), 1 mM 2OG, 1 mM L-ascorbate, 50 mM HEPES pH 7.5, 37 °C, hypoxia workstation at different pO2; triplicate assays
Protocol: as §1
FIGURE 4. O2 dependence of FIH- and PHD2-catalyzed hydroxylation of HIF-1/2α. A, O2 dependence of PHD2-catalyzed hydroxylation of HIF-1/2α CODD/NODD 19-mer peptides. 4 μM PHD2, peptide (varied), 50 μM Fe(II), 2OG (varied), 4 mM L-ascorbate in HEPES 50 mM (pH 7.5) were incubated at 37 °C. The different O2 levels were maintained using mass flow controllers ([42]), and the hydroxylation levels were analyzed by MALDI-TOF-MS. B, O2 dependence of FIH-catalyzed hydroxylation of CAD HIF-1/2α 35-mer peptides. Conditions were as follows. 5 μM FIH, 500 μM peptide, 50 μM Fe(II), 1 mM 2OG, 1 mM L-ascorbate in HEPES 50 mM (pH 7.5) were incubated at 37 °C in a hypoxia work station under different pO2. […] Error bars, S.D. of triplicate assays.
FIGURE 8. Time course and O2 dependence of the FIH-catalyzed hydroxylation of HIF-α CAD and ARD substrates. Conditions were as follows. 5 μM FIH, 500 μM peptide, 50 μM Fe(II), 1 mM 2OG, 1 mM L-ascorbate in HEPES 50 mM (pH 7.5) were incubated at 37 °C. For O2 dependence studies, reactions were carried out in a hypoxic work station under different pO2 (assays at >20% O2 conducted using mass flow controllers ([42])). The different hydroxylation levels were analyzed by MALDI-TOF-MS or by LC-MS (for 2CA and 3CA). […] Error bars, S.D. of triplicate assays. A, time course of consensus ARD substrate hydroxylation (tankyrase-1 (tnkrs-1 20-mer and 35-mer) and one-consensus ankyrin repeat 20-mer (1CA)). B, time course of ARD peptide hydroxylation (one-consensus ankyrin repeat 20-mer (1CA), two ankyrin repeats (2CA), and three ankyrin repeats (3CA)). C, O2 dependence of HIF-1/2α CAD, 1CA, and tnkrs-1_35-mer hydroxylation. D, O2 dependence of 1CA, 2CA, and 3CA hydroxylation.

PHD2 = target: T2, PHD2 (Homo sapiens, UniProt Q9GZT9); assay: Stopped-flow UV-visible spectroscopy, PHD2·Fe(II)·2OG·substrate + O2; settings: anaerobic 0.8 mM PHD2, 1 mM peptide, 5 mM 2OG, 50 mM HEPES pH 7.5, mixed 1:1 with O2-saturated buffer at 5 °C; double exponential fit; traces average of triplicate
T2 construct: The catalytic domain of PHD2 (residues 181–426) was purified as described; made in house
T2 sequence (Q9GZT9 181-426): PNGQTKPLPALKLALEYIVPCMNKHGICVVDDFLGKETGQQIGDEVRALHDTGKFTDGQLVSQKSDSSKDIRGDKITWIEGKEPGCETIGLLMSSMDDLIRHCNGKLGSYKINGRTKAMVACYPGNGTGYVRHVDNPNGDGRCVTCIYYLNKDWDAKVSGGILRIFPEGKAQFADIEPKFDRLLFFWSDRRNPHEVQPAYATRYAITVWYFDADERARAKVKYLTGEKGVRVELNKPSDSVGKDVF
Protocol: as §2, with “Anerobically prepared assay mixtures containing 0.5 mM apo-FIH, 1 mM substrate, 5 mM 2OG, 0.4 mM Fe(II) or 0.8 mM apo-PHD2, 1 mM substrate, 5 mM 2OG, 0.5 mM Fe(II) were rapidly mixed with O2-free/O2-saturated buffer.” left out
Previously reported pre-steady-state kinetic studies on PHD2 focused on its reaction with CODD HIF-1α 19-mer peptide ([38], [42]); there is no reported information on the rates of PHD2 reaction with O2 in the presence of NODD HIF-1α or HIF-2α substrates. To ascertain whether a slow reaction with O2 under pre-steady-state conditions is common to PHD2-catalyzed hydroxylation of both CODD and NODD, we investigated the reaction of PHD2 with NODD substrates in comparison with CODD for both HIF-1α and HIF-2α. Pre-steady-state reactions of PHD2 were initiated by rapid mixing of anaerobic PHD2·Fe(II)·2OG·HIF-α complexes with O2-saturated buffer at 5 °C. Reactions were initially observed using a photodiode array detector, and difference spectra (in comparison with the reaction with O2-free buffer) were subsequently analyzed.
FIGURE 5. Pre-steady-state kinetics of PHD2-catalyzed HIF-1/2α hydroxylation. […] B, stopped-flow kinetic traces at 520 nm showing absorbance changes in control experiments: Fe(II) only, mix of Fe(II) and 2OG, reaction of PHD2·Fe(II)·2OG complex with O2 in the absence of CODD; reaction of PHD2·Fe(II)·N-oxalylglycine (NOG)·CODD complex with O2. N-Oxalylglycine is an inhibitor of 2OG oxygenases. […] The kinetic traces represent the average of triplicate assays. E, HIF-1/2α peptide hydroxylation, as determined by MALDI-TOF-MS. Reactions were quenched with 1% CF3CO2H at defined time points.

Km^app(O2) (FIH [4])	Stopped-flow, 520 nm (PHD2) kfall phase (PHD2)	Molecule	Km (FIH [1]; FIH with the named substrate, 2OG varied, read-out: Km^app(2OG)) [µM]	kcat^app (FIH [1]; FIH, MALDI-TOF-MS or LC-MS) [s⁻¹]	Km (FIH [1]; FIH, substrate varied, 2OG fixed, read-out: Km^app(peptide)) [µM]	Stopped-flow, 500 nm (FIH) kfall phase (FIH [2]) [s⁻¹]	Stopped-flow, 500 nm (FIH) krise phase (FIH [2]) [s⁻¹]	Rapid quench-flow kproduct (FIH [3]) [s⁻¹]	Rapid quench-flow ksuccinate (FIH [3]) [s⁻¹]	product accumulation rate, fold faster than the reaction with HIF 35-mer substrates (FIH [3]; rapid quench-flow, 5 °C) [fold]
		NLEVAEYLLEHGADVNAQDK [tnkrs-1_20-mer, 20-mer fragment of tankyrase-1, ARD substrate of FIH]	370 ± 120	0.8 ± 0.1	78 ± 11	16.7 ± 0.2	0.4 ± 0.2	1.5 ± 0.1	1.0 ± 0.3	~10
no difference		DESGLPQLTSYDCEVNAPI [CAD HIF-1α19-mer]						0.013 ± 0.003	0.016 ± 0.004	
	same kinetics	HIF-1α(344–503) NODD protein: recombinant HIF-1α(344–503) NODD protein, longer PHD2 substrate (protein, UniProt Q16665 344-503, looked up, fragment) GIIQHDLIFSLQQTECVLKPVESSDMKMTQLFTKVESEDTSSLFDKLKKEPDALTLLAPAAGDTIISLDFGSNDTETDDQQLEEVPLYNDVMLPSPNEKLQNINLAMSPLPTAETPKPLRSSADPALNQEVALKLEPNPESLELSFTMPQIQDQTPSPSD								
